Test results taken from patent US20090181986A1, “SUBSTITUTED HETEROCYCLIC COMPOUNDS” (priority 2007, published 2009).

How the values were obtained:
hERG potassium channel = hERG potassium channel (Homo sapiens, UniProt Q12809); assay: hERG screening assay (PatchXpress patch clamp, CHO cells)
[1] = target: T1, human cardiac L-type calcium channels (hCav1.2, coexpressed with the beta 2 subunit) (Homo sapiens, UniProt Q13936); assay: L-type calcium channel patch clamp screening assay (ICaL, HEK293); assay type: cell-based; settings: hCav1.2 in HEK293, percentage of current inhibited at steady state; for ICaL Patch Clamp Assay 1 μM % blk: 1 μM test compound; for ICaL Patch Clamp Assay 10 μM % blk: 10 μM test compound
T1 construct: expressed in transfected cells
T1 sequence (Q13936 whole entry): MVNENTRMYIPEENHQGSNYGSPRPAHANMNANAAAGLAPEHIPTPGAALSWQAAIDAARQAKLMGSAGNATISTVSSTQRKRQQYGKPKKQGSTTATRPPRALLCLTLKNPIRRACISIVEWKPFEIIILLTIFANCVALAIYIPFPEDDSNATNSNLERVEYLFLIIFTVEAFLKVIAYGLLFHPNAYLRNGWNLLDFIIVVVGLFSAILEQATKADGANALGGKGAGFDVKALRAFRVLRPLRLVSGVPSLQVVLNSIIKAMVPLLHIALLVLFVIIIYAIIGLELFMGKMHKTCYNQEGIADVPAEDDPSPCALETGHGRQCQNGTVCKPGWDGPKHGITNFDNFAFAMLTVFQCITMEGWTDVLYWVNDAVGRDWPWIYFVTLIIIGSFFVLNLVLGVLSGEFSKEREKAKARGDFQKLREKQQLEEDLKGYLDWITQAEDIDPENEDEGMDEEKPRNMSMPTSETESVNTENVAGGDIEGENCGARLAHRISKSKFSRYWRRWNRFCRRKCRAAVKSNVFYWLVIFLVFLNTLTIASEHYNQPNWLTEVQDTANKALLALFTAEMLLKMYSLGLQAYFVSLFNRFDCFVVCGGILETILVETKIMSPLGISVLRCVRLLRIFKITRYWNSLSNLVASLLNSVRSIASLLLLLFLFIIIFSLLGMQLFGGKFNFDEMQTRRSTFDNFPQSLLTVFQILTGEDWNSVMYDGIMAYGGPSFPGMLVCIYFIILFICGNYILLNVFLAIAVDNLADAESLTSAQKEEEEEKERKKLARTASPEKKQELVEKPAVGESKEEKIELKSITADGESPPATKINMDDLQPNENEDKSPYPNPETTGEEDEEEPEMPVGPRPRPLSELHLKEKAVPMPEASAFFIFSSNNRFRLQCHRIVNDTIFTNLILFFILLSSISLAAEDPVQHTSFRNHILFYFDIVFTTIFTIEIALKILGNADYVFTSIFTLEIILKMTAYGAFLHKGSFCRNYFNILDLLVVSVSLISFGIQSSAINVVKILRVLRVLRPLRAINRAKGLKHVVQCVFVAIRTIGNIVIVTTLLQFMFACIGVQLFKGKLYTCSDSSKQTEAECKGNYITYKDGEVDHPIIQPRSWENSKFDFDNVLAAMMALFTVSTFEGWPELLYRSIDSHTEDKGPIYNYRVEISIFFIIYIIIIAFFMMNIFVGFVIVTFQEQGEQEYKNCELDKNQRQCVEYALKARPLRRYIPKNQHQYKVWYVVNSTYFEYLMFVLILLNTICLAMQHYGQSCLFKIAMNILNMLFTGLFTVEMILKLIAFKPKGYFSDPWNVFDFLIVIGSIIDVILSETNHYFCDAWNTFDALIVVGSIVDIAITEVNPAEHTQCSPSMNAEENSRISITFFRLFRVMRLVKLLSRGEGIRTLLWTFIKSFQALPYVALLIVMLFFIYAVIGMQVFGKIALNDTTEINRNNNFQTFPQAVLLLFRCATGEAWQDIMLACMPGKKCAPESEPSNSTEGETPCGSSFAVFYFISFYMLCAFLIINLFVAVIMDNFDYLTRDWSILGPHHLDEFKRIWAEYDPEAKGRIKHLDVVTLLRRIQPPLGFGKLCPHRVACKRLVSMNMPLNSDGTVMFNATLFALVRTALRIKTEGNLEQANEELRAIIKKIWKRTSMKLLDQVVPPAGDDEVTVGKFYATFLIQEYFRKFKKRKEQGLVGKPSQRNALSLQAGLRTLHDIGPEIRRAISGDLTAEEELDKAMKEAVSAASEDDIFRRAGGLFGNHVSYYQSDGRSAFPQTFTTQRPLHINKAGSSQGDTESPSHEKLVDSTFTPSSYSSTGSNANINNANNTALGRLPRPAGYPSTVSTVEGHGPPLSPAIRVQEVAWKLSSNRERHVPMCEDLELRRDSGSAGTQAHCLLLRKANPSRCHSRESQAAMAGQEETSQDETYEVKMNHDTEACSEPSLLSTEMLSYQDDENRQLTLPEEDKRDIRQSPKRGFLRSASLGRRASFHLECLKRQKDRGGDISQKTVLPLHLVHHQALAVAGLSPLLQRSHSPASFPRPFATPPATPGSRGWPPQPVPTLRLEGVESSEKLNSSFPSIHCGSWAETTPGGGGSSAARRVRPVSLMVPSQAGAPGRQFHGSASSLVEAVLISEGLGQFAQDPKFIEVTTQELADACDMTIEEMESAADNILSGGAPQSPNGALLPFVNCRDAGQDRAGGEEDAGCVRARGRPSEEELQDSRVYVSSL
T1 sequence (Q08289 whole entry partner): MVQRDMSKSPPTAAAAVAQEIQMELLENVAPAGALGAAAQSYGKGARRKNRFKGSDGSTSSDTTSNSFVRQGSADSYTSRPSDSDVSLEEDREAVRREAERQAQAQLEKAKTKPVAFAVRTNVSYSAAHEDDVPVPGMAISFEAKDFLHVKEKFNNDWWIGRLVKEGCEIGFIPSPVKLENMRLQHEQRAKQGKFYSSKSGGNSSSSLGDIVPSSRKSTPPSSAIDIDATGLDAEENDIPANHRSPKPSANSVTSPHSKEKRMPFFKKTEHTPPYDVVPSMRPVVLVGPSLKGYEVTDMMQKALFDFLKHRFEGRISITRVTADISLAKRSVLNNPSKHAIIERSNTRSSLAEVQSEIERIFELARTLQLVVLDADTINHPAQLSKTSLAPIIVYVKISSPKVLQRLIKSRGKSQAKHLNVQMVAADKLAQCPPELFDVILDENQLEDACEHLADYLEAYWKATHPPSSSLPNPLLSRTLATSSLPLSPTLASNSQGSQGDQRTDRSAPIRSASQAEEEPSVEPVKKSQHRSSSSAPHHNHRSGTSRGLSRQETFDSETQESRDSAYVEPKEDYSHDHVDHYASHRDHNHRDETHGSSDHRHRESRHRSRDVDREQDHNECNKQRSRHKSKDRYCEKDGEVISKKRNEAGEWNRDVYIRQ
Experimental: Compounds are screened to test for block of human cardiac L-type calcium channels (hCav1.2, encoded by the human CACNA1C gene and coexpressed with the beta 2 subunit, encoded by the human CACNB2 gene) expressed in an HEK293 cell line. Stable transfectants were selected using antibiotic resistance genes incorporated into the expression plasmids and selection pressure is maintained with selection antibiotics added to the culture medium. Cells are cultured using standard tissue culture methods for HEK293 cells.
Cells are harvested for addition to a PatchXpress automated patch clamp system. The external solution contains: 137 mM NaCl; 4 mM KCl; 1.8 mM CaCl2; 1 mM MgCl2; […]; 10 mM Glucose (pH adjusted to 7.4 with NaOH). The internal solution contains: 130 mM Cs Aspartate; 5 mM MgCl2; 5 mM EGTA; 4 mM ATP; 0.1 mM GTP; 10 mM HEPES (pH adjusted to 7.2 with N-methyl-D-glucamine).
Onset of block and steady state block of hCav1.2 channels are monitored using a stimulus voltage pattern consisting of a depolarizing test pulse (duration, 200 ms; amplitude, 10 mV) at 10s intervals from a −80 mV holding potential (FIG. 5). Test compound concentrations (1 μM and 10 μM) are applied cumulatively in ascending order without washout between applications. Peak current is measured during the step to 10 mV. A saturating concentration of nifedipine (10 μM) is added at the end of each experiment to completely block hCav1.2 current and verify sensitivity to channel blockade. Leakage current is measured after nifedipine addition and digitally subtracted from the total membrane current record. Each compound is applied to naive cells and each concentration is applied four times for a total exposure duration of five (5) minutes per concentration.
Test compound stock solutions are prepared in dimethyl sulfoxide (DMSO) and stored frozen. Test compound concentrations are prepared fresh daily by diluting stock solutions into the external HEPES-buffered physiological saline solution described above. […] Each test compound formulation is sonicated (Model 2510/5510, Branson Ultrasonics, Danbury, Conn.), at ambient room temperature for at least 20 minutes to facilitate dissolution. In preparation for the recording session, a glass-lined 96-well compound plate is loaded with the appropriate amounts of test and control solutions, and placed in the plate well of PatchXpress® (Model 7000A, MDS Analytical Technologies, Sunnyvale, Calif.).
Data acquisition and analyses are performed using conventional software. Steady state is defined by the limiting constant rate of change with time (linear time dependence). The steady state before and after test compound application is used to calculate the percentage of current inhibited at each concentration.

Chain of hERG potassium channel (Q12809 whole entry): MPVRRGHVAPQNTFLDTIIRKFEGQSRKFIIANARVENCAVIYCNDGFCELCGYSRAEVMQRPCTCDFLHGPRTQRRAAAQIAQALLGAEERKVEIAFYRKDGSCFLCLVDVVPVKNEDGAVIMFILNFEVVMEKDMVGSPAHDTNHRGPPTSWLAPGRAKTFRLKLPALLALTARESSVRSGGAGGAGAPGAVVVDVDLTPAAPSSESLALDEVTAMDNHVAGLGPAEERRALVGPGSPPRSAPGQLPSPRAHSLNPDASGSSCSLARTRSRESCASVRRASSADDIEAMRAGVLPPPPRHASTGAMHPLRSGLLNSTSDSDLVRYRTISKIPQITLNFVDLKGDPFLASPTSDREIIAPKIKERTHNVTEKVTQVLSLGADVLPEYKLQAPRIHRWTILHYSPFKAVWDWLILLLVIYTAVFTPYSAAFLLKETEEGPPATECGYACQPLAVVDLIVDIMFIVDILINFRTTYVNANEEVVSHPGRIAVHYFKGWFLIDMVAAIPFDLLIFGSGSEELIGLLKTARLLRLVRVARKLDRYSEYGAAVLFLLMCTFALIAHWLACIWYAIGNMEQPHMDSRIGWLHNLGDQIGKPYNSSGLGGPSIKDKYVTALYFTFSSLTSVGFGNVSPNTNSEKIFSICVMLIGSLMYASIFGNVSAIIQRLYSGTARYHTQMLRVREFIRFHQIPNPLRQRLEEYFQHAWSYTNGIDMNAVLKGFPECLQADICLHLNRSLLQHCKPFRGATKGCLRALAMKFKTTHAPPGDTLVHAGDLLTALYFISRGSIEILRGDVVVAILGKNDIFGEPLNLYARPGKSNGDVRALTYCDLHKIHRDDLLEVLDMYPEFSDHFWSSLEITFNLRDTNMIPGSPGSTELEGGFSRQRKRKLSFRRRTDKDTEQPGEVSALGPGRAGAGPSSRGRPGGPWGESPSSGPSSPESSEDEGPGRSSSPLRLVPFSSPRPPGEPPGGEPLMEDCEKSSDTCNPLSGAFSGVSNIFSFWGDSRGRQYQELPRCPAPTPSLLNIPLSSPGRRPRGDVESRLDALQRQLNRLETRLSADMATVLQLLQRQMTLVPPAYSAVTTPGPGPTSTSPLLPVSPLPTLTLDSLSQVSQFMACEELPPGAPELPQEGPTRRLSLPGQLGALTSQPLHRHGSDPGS

Structure (SMILES)	hERG Patch Clamp hERG % blk (1 μM test cmpd) (hERG potassium channel) [%]	hERG Patch Clamp hERG % blk (10 μM test cmpd) (hERG potassium channel) [%]	ICaL Patch Clamp Assay 1 μM % blk [1] [%]	ICaL Patch Clamp Assay 10 μM % blk [1] [%]
CC1=C(C(=O)OCc2ccccc2)C(c2ccc(N(C)C)cc2[N+](=O)[O-])n2nnnc2N1 (centres unmarked) [PT-409, benzyl 7-(4-(dimethylamino)-2-nitrophenyl)-5-methyl-4,7-dihydrotetrazolo[1,5-a]pyrimidine-6-carboxylate]	27	78.5	2.7	19.9
CCOC(=O)C1=C(C)NC(C)=C(C(=O)OCC)C1c1ccccc1Br [PT-430, diethyl 4-(2-bromophenyl)-2,6-dimethyl-1,4-dihydropyridine-3,5-dicarboxylate]	10	21.5	91.8	98.6
